Source: patent US20240009321A1, “IMMUNOGENIC NANOVESICLES FOR CANCER IMMUNOTHERAPY” (Arizona Board of Regents on Behalf of the University of …, priority 2020, published 2024)

Legend:
[1] = Lago optical imaging of in vivo tumor delivery of Cy5.5-labeled Camptothesome-4; design: species or system BALB/c mice; settings: SC CT26 tumor mice, entire monitored period (24 h)
Method: M ice were imaged at 0 h (prior to drug administration), and 2.5, 8, 12, and 24 h post IV injection (excitation=675 nm; emission=710 nm). At 24 h, tumors, heart, liver, spleen, lung, and kidneys were imaged using Lago optical imager. For tumor penetration investigation, tumors were frozen in an acetone/dry ice mixture prior to immunofluorescence examination. The tumor blood vessels were stained with a primary anti-CD31 (a.k.a. PECAM-1) antibody (Abcam, ab28364, 1:50), followed by an Alexa Fluor 488-conjugated secondary antibody (Abcam, ab150073, 1:400). DAPI was used to localize the cellular nuclei. Tumor tissues were cut into […] slide section by University of Arizona TACMASR and subject to the confocal laser scanning microscopy using Leica SP5-II confocal microscope (Buffalo Grove, IL) at University of Arizona Cancer Center Imaging Core.

[2] = Pharmacokinetics in orthotopic CT26-Luc tumor-bearing mice; settings: for AUC(0-inf) / AUC(0-t) / MRT / half-life: BALB/c, mouse, plasma, iv; for AUMC / CL / V / Vss: single IV, nanovesicles 6.7/20 mg DOX-IND/CPT/kg
Method: The various pharmacokinetics parameters were assessed by one-compartmental model using PKSolver software.

MC38 tumor = experiment: Therapeutic efficacy in SC MC38 tumor bearing mice; assay type: in vivo, C57BL/6 mice; settings: ˜300 mm^3, single IV at eq. 20 mg CPT/kg and 6.7 mg DOX-IND/kg
Method: In FIG. 8I-8J, 2×10^5 cells/mouse in 100 μL of serum free medium were SC injected to C57BL/6 (n=6). […] Mice survival rate was closely monitored every day.
Mouse weight was monitored every 3 days, and mice survival was monitored every day.
In FIG. 16E-161, 4×10^5 cells/mouse in 100 μL of serum free medium were SC injected to C57BU6 (n=6). Mice were IV injected once with various treatments at equivalent (eq.) 20 mg CPT/kg and 6.7 DOX-IND mg/kg when tumors grew to ˜300 mm^3. α-CD8 (BioXCell, clone 53-6.7) was IP injected at 200 μg/mouse/3 days from day 17. On day 23, mice were euthanized, and tumor tissues were isolated and equally cut into 3 pieces; one part for IHC staining for CD8, Foxp3, Calreticulin, IFN-γ, Perforin, Granzyme B, CC-3) by University of Arizona TACMASR; another two parts for Western blotting of P-S6K and RT-PCR for IL-6, respectively. Mouse weight was monitored every 3 days, and mice survival was monitored every day.
In FIG. 16K-16N, 2×10^5 cells/mouse were SC injected to C57BL/6 (n=5). When tumors reached ˜400 mm^3, mice received a single IV injection with various treatments at eq. […] Mouse weight was monitored every 3-4 days, and mice survival was monitored every day.

[3] = Blood kinetics of CPT in SC CT26 tumor bearing mice
Method: Following a single IV injection via tail vein of free CPT (5 mg CPT/kg, MTD) and different Camptothesomes (20 mg CPT/kg) to SC CT26 tumor bearing mice (n=3, ˜300 mm^3), blood was withdrawn at 0.083, 0.333, 1, 2.5, 8, 12 and 24 h and plasma (via plasma tube, BD Microtainer™) was collected and digested in methanol (90 μL methanol/10 μL serum) for HPLC analysis to measure the released CPT and SM-derived CPT conjugates. 24 h after drug IV administration, tumor tissues and major organs (heart, liver, spleen, lung, and kidneys) were collected, weighed, and then homogenized in acidified methanol (0.075 M HCl, 900 μL/100 mg tissues) followed by drug content determination using an established HPLC method. […] Mice were sacrificed at 2.5 h and 72 h post drug administration, the drug content in the collected tumor tissues and organs were processed, and analyzed as described above.

[4] = Maximum tolerated dose (MTD) and systemic toxicity in healthy mice; assay type: in vivo, BALB/c mice; settings: for Animal Death / Weight Loss: n=3, 14 days
Method: Changes in body weight and survival of mice were followed every 1-2 days for two weeks. […] On day 14 post drug injection, blood was withdrawn by cardiac puncture and major organs (e.g., heart, liver, and kidneys) were collected. Blood was collected in lithium heparin tubes (BD Microtainer™) followed by centrifuging at 2,000×g for 10 minutes in a refrigerated centrifuge. The supernatant (serum) was sent to University of Arizona University Animal Care Pathology Services Core for a series of serum chemistry analysis. The whole blood in dipotassium EDTA tube (BD Microtainer™) were used for leukocytes, erythrocytes, and thrombocytes analysis. Mice organs from MTD dose and vehicle control groups were placed in a 4% paraformaldehyde solution for 24 h and then sent to Tissue Acquisition and Cellular/Molecular Analysis Shared Resource (TACMASR) at University of Arizona Cancer Center for histopathological analysis.

CT26 tumor = experiment: Therapeutic efficacy in SC CT26 tumor bearing mice; assay type: in vivo, BALB/c mice; settings: single IV on day 9 (˜50 mm^3); free CPT 5 mg/kg, Camptothesomes and Onivyde 20 mg CPT or irinotecan/kg
Method: 1×10^5 CT26 cells in 100 μL of serum free medium were SC injected in the right flank of the BALB/c mice (n=5 or 6). […] To determine the effect on survival rate in each group (n=6). Kaplan-Meier plots were used to express animal survival rate. For the efficacy study in FIG. 8D-8H, mice were euthanized on day 21; tumors were collected and soaked in 4% paraformaldehyde overnight prior to the immune phenotypic [CD8, Granzyme B, Perforin, Cleaved caspase-3 (CC-3), and IFN-γ] analysis using IHC staining by University of Arizona TACMASR.

[5] = Blood kinetics of IND, IND 1.7 mg/kg
[6] = BALB/c, mouse, plasma, iv, 5 mg/kg
[7] = single IV, free CPT 5 mg/kg, Camptothesomes 20 mg CPT/kg, SC CT26 tumor mice, n=3
[8] = Blood kinetics of CPT, free CPT 5 mg/kg

## 1,2-dioleoyl-sn-glycero-3-phosphoethanolamine-N-(cyanine 5.5) [Free DSPE-Cy5.5]
[1]
  fluorescence signal in tumors: no observable signal in tumors

## Cn1cc(C[C@@H](N)C(=O)O)c2ccccc21 [Free IND, 1-methyl-D-tryptophan]
[2]; 1.7 mg/kg
  AUC(0-inf): 5670 ± 540 ng·h/mL
  AUC(0-t): 5660 ± 530 ng·h/mL
  MRT: 24.6 ± 5.4 min
  half-life: 4.8 ± 1.2 min
[2]; [5]
  AUMC: 2.38 ± 0.71 μg/mL*h2
  CL: 12.08 ± 1.17 μg/(μg/mL)/h
  V: 4.94 ± 0.63 μg/(μg/mL)
  Vss: 4.95 ± 0.63 μg/(μg/mL)

## COc1cccc2c1C(=O)c1c(O)c3c(c(O)c1C2=O)C[C@@](O)(/C(CO)=N\NC(=O)OCCSSCCOC(=O)C(N)Cc1cn(C)c2ccccc12)C[C@@H]3O[C@H]1C[C@H](N)[C@H](O)[C@H](C)O1 (stereo in doubt) [DOX-IND, 2-((2-((1-methyl-D-tryptophyl)oxy)ethyl)disulfanyl)ethyl (Z)-2-(1-((2S,4S)-4-(((2R,4S, 5S, 6S)-4-amino-5-hydroxy-6-methyltetrahydro-2H-pyran-2-yl)oxy)-2,5,12-trihydroxy-7-methoxy-6,11-dioxo-1,2,3,4,6,11-hexahydrotetracen-2-yl)-2-hydroxyethylidene)hydrazine-1-carboxylate]
MC38 tumor
  tumor growth in large MC38 tumors: did not show significant tumor growth inhibition

## CC[C@@]1(O)C(=O)OCc2c1cc1n(c2=O)Cc2cc3ccccc3nc2-1 [Free CPT, (S)-(+)-camptothecin]
[3]; BALB/c, mouse, in vivo, iv, 5 mg/kg
  half-life: 4.2 ± 0.6 min
[3]; [6]
  AUC(0-inf): 11200 ± 1520 ng·h/mL
  AUC(0-t): 11000 ± 1550 ng·h/mL
  MRT: 351 ± 24.6 min
[3]; SC CT26 tumor mice, single IV
  elimination from blood / circulation half-life: rapidly eliminated from blood
[3]; [7]
  AUMC: 65.42 ± 6.99 μg/mL · h^2
  CL: 36.06 ± 5.00 µg/µg/mL/h
  V: 26.44 ± 0.27 µg/µg/mL
  Vss: 211.68 ± 38.45 µg/µg/mL
[4]; Dose 5 mg/kg, single IV
  Animal Death: 0/3
  Weight Loss: 1.82%
[4]; Dose 7.5 mg/kg, single IV
  Animal Death: 1/3
[4]; Dose 10 mg/kg, single IV
  Animal Death: 1/3
[4]; Dose 12.5 mg/kg, single IV
  Animal Death: 0/3
  Weight Loss: 25.35%
[4]; at MTD, day 14 post IV injection
  systemic toxicity (serum chemistry, blood counts, H&E of organs): severe systemic toxicities
[4]; mouse, in vivo, single IV, healthy BALB/c mice, 14 days, no death, not more than 15% weight loss
  MTD at 14 days: 5 mg/kg
[2]; 5 mg/kg
  AUC(0-inf): 9480 ± 880 ng·h/mL
  AUC(0-t): 9470 ± 870 ng·h/mL
  MRT: 51.6 ± 2.4 min
  half-life: 3.6 ± 0.6 min
[2]; [8]
  AUMC: 8.12 ± 0.38 μg/mL*h2
  CL: 10.62 ± 1.00 μg/(μg/mL)/h
  V: 0.77 ± 0.23 μg/(μg/mL)
  Vss: 9.16 ± 1.30 μg/(μg/mL)
CT26 tumor
  tumor growth: significant tumor reduction
